Data as given in PubChem BioAssay (NCI).
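All cell lines were grown in 96-well plates and treated with compound for 48 hours. At the TGI there is no net growth.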

How the values were obtained:
Assay in all cases: DTP human tumour cell line panel, 48 h
SK-OV-3 ovarian = test system: SK-OV-3 ovarian
NCI-H460 lung = test system: NCI-H460 lung
CAKI-1 renal = test system: CAKI-1 renal
HCT-116 colon = test system: HCT-116 colon
SNB-75 CNS = test system: SNB-75 CNS
SW-620 colon = test system: SW-620 colon
NCI-H23 lung = test system: NCI-H23 lung
A549 NSCLC = test system: A549 NSCLC
SR leukemia = test system: SR leukemia
SK-MEL-5 melanoma = test system: SK-MEL-5 melanoma
OVCAR-8 ovarian = test system: OVCAR-8 ovarian
SF-268 CNS = test system: SF-268 CNS
SNB-19 CNS = test system: SNB-19 CNS
U251 CNS = test system: U251 CNS
SF-295 CNS = test system: SF-295 CNS
PC-3 prostate = test system: PC-3 prostate
M14 melanoma = test system: M14 melanoma
T-47D breast = test system: T-47D breast
COLO 205 colon = test system: COLO 205 colon
TK-10 renal = test system: TK-10 renal
A498 renal = test system: A498 renal
OVCAR-3 ovarian = test system: OVCAR-3 ovarian
SN12C renal = test system: SN12C renal
ACHN renal = test system: ACHN renal
MDA-MB-435 = test system: MDA-MB-435
CCRF-CEM leukemia = test system: CCRF-CEM leukemia
MOLT-4 leukemia = test system: MOLT-4 leukemia
SF-539 CNS = test system: SF-539 CNS
KM12 colon = test system: KM12 colon
K-562 leukemia = test system: K-562 leukemia
HS 578T breast = test system: HS 578T breast
UACC-257 melanoma = test system: UACC-257 melanoma
HCT-15 colon = test system: HCT-15 colon
UO-31 renal = test system: UO-31 renal
EKVX NSCLC = test system: EKVX NSCLC
OVCAR-5 ovarian = test system: OVCAR-5 ovarian
DU-145 prostate = test system: DU-145 prostate
MALME-3M melanoma = test system: MALME-3M melanoma
RXF 393 renal = test system: RXF 393 renal
MCF7 breast = test system: MCF7 breast
MDA-N = test system: MDA-N
UACC-62 melanoma = test system: UACC-62 melanoma
SK-MEL-28 melanoma = test system: SK-MEL-28 melanoma
IGROV1 ovarian = test system: IGROV1 ovarian
HOP-62 NSCLC = test system: HOP-62 NSCLC
LOX IMVI melanoma = test system: LOX IMVI melanoma
HOP-92 NSCLC = test system: HOP-92 NSCLC
HCC-2998 colon = test system: HCC-2998 colon
SK-MEL-2 melanoma = test system: SK-MEL-2 melanoma
MDA-MB-231 breast = test system: MDA-MB-231 breast
NCI/ADR-RES ovarian = test system: NCI/ADR-RES ovarian
NCI-H226 lung = test system: NCI-H226 lung
OVCAR-4 ovarian = test system: OVCAR-4 ovarian
HT29 colon = test system: HT29 colon
BT-549 breast = test system: BT-549 breast
HL-60(TB) leukemia = test system: HL-60(TB) leukemia
NCI-H522 lung = test system: NCI-H522 lung
786-0 renal = test system: 786-0 renal

Structure (SMILES): C/C=C(/C)C(=O)O[C@H]1C(C)=C[C@]23C(=O)[C@@H](C=C(COC(C)=O)[C@@H](O)[C@]12O)[C@H]1[C@@H](C[C@H]3C)[C@@]1(C)OC(=O)/C(C)=C\C
- TGI (SK-OV-3 ovarian): 8.2 µM
- TGI (NCI-H460 lung): 4.09 µM
- TGI (CAKI-1 renal): 6.14 µM
- TGI (HCT-116 colon): 9.77 µM
- TGI (SNB-75 CNS): 4.53 µM
- TGI (SW-620 colon): 9.76 µM
- TGI (NCI-H23 lung): 5.19 µM
- TGI (A549 NSCLC): 9.34 µM
- TGI (SR leukemia): 10.9 µM
- TGI (SK-MEL-5 melanoma): 3.84 µM
- TGI (OVCAR-8 ovarian): 11.3 µM
- TGI (SF-268 CNS): 4.73 µM
- TGI (SNB-19 CNS): 5.92 µM
- TGI (U251 CNS): 7.55 µM
- TGI (SF-295 CNS): 5.01 µM
- TGI (PC-3 prostate): 4.75 µM
- TGI (M14 melanoma): 5.47 µM
- TGI (T-47D breast): 3.29 µM
- TGI (COLO 205 colon): 3.8 µM
- TGI (TK-10 renal): 7.69 µM
- TGI (A498 renal): 6.07 µM
- TGI (OVCAR-3 ovarian): 5.99 µM
- TGI (SN12C renal): 5.34 µM
- TGI (ACHN renal): 4.39 µM
- TGI (MDA-MB-435): 6.6 µM
- TGI (CCRF-CEM leukemia): 5.21 µM
- TGI (MOLT-4 leukemia): 3.56 µM
- TGI (SF-539 CNS): 5.88 µM
- TGI (KM12 colon): 4.06 µM
- TGI (K-562 leukemia): 6.81 µM
- TGI (HS 578T breast): 5.28 µM
- TGI (UACC-257 melanoma): 10.4 µM
- TGI (HCT-15 colon): 7.17 µM
- TGI (UO-31 renal): 2.16 µM
- TGI (EKVX NSCLC): 6.38 µM
- TGI (OVCAR-5 ovarian): 6.48 µM
- TGI (DU-145 prostate): 6.21 µM
- TGI (MALME-3M melanoma): 3.89 µM
- TGI (RXF 393 renal): 5.25 µM
- TGI (MCF7 breast): 6.11 µM
- TGI (MDA-N): 6.35 µM
- TGI (UACC-62 melanoma): 5.69 µM
- TGI (SK-MEL-28 melanoma): 11.8 µM
- TGI (IGROV1 ovarian): 10.2 µM
- TGI (HOP-62 NSCLC): 5.25 µM
- TGI (LOX IMVI melanoma): 9.65 µM
- TGI (HOP-92 NSCLC): 6.34 µM
- TGI (HCC-2998 colon): 5.59 µM
- TGI (SK-MEL-2 melanoma): 6.01 µM
- TGI (MDA-MB-231 breast): 8.18 µM
- TGI (NCI/ADR-RES ovarian): 6.82 µM
- TGI (NCI-H226 lung): 7.52 µM
- TGI (OVCAR-4 ovarian): 6.33 µM
- TGI (HT29 colon): 1.49 µM
- TGI (BT-549 breast): 5.73 µM
- TGI (HL-60(TB) leukemia): 5.67 µM
- TGI (NCI-H522 lung): 6.07 µM
- TGI (786-0 renal): 8.93 µM
